Measurements: US20160318844A1, “PROSTACYCLIN COMPOUNDS, COMPOSITIONS AND METHODS OF USE THEREOF” (Insmed Incorporated, priority 2015, published 2016)
Like-named read-outs stand apart in the source and are kept apart here.

Tests used:
[1] = Treprostinil alkyl ester conversion to treprostinil in dog lung tissue homogenate; assay type: in vitro ADME; settings: 37° C.
Description: Here, data were calculated based on fit of exponential increase to the maximum (experiments performed in duplicate). The results of this study are provided below in Table 2A and FIG. 37. […] In this experiment, treprostinil alkyl esters were incubated for 4 hours at a final concentration of 200 nM in 1 mL of tissue homogenate prepared in water and normalized to 10 mg/mL of protein.
C12-TR was incubated for 4 hours at a final concentration of 200 nM in 1 mL of tissue homogenate prepared in water and normalized to 10 mg/mL of protein. Both FIG. 37 experiments (eft and right graphs) were performed in duplicate and the lines represent nonlinear exponential regression assuming 1 phase decay. Table 2A. Rate of treprostinil alkyl ester conversion in the presence of rat, dog or monkey lung tissue homogenate.

NR8383 cells = assay: NR8383 cell proliferation assay; assay type: cell-based, rat; settings: for Effect on cell proliferation, NR8383 Cells: detectable cell inhibition: Table 9, unformulated alkyl esters, (0.195 μM-25 μM), 72 hour incubation
Description: Rat alveolar NR8383 cells were harvested when the monolayer was 50-90% confluent (use passage 5-11). Because the NR8383 cells include both adherent and non-adherent cells, media was transferred to a 50 mL Falcon tube. To obtain the cells remaining in the flask, 2 mL of plain media was added, and the remaining cells were scraped out of the 75 cm^2 flask with a cell scraper and added to the 50 mL tube. […] SH30071.03)+1×Pen-Strep (Life Technologies, cat #: 15410-122)). Cell number was determined using a hemacytometer. […] Measurements and calculations were made as described above for the CHO-K1 cells. Rat alveolar NR8383 cells were challenged with the same treprostinil derivative compositions: […]

EP2 prostanoid receptor = biological target: T1, EP2 prostanoid receptor (Homo sapiens, UniProt P43116); assay: GloSensor cAMP assay in CHO-K1 cells co-transfected with the EP2 receptor; assay type: cell-based
T1 construct: host or cells: CHO-K1
T1 sequence (P43116 whole entry): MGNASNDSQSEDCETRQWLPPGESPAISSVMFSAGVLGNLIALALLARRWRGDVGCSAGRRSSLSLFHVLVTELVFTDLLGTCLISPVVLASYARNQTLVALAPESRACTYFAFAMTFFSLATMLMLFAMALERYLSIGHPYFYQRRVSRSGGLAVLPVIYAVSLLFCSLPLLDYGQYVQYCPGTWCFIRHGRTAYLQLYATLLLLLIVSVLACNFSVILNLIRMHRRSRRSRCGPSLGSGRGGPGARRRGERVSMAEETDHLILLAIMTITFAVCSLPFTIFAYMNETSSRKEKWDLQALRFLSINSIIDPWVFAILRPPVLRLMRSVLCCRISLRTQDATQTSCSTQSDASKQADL
From the text: cAMP is a second messenger involved in signal transduction of G-protein coupled receptors (GPCRs) acting through Gα-s and Gα-i proteins. Because the treprostinil receptor is a GPCR, the assay provides an indication of whether the respective prostacyclin compound (or metabolite thereof) binds its receptor and activates the GPCR cell signaling cascade. The GloSensorTM assay harnesses a genetically modified form of firefly luciferase into which a cAMP-binding protein moiety has been inserted. Upon binding of cAMP, a conformational change is induced leading to increased light output. The EP2 prostanoid receptor was cotransfected with the GioSensorm plasmid (Promega) into CHO-K cells as follows. CHO-K cells were harvested when the monoloayer was at 50-90% confluence. First, cells were washed with 5 mL PBS. […] The media was aspirated, and the cell pellet was resuspended in 10 mL of growth media. Cell number was determined using a hemacytometer. […] For small scale transfections of up to 20 wells, the pGLoSensor-22F cAMP plasmid (Promega, Cat #: E2301) (2 apg): […] Cat #: […] P2271) ratio was diluted to a final concentration of 12.6 ng/μL (total plasmid) in Opti-MEM I reduced-serum medium (Life Technologies, Cat #: 1985062). Next, 6 μL of FuGENE HD transfection reagent (Promega, Cat #: E2311) was added to 160 μL of diluted plasmid and mixed carefully by gentle pipetting. The complex was incubated at room temperature for 0 to 10 minutes, and then 8 μL of the complex was added per well of a 96 well white assay plate (Costar, Cat #: 3917) and gently mixed without disturbing the cell monolayer. […] Following incubation, cells were treated and analyzed. For larger scale transfections, the aforementioned steps were scaled up accordingly, and cells were frozen following the last incubation. In order to prepare frozen transfected CHO-K cells, the media was aspirated from culture flasks and cells were rinsed with 5 mL PBS. […] Cell number was determined using a hemacytometer. The media was aspirated, and the cell pellet was resuspended in freezing media (Millipore, cat #: S-002-SF) at 2.5×10^4 cells/vial. Transfected cells were incubated overnight at -80° C. before transfer to liquid nitrogen for long term storage. […] SH30071.03)). […] In preparation for cAMP measurement, the cells were equilibrated with the GloSensor cAMP reagent prior to treatment. For equilibration, the medium was carefully removed from the individual well. Next, 100 μL of equilibration medium ([…] of Glosensor Reagent stock solution (Promega, Cat #: E291), 10% FBS (Hydone, Cat #: SH30071.03) and 88% CO2 independent medium (Life Technologies, Cat #: 18045088)) was added per well of the 96-well plate, and added to the side of each well. The plate was then incubated for 2 hours at room temperature. A first pre-read measurement was taken using a microplate reader (MicroLumat Plus). Plates were incubated for an additional 10 minutes at room temperature, followed by a second pre-read measurement. […] Following treatment, each plate was read every 5 minutes for the duration of the assay using a microplate reader (MicroLumat Plus). In order to determine the fold change in cAMP relative to the control, the transfection efficiency was first determined by dividing the second pre-read measurement by the average of the corresponding pre-read measurements. Next, the normalized relative light units (RLUs) of the samples were determined by dividing the plate read measurement by the transfection efficiency. The fold change in cAMP relative to the control was then determined by dividing the normalized RLU of the samples by the normalized RLU of the control. The cAMP assay was validated using free treprostinil. […] Luminescence was then measured at room temperature. […] Nebulizer Aeroneb Pro (Aerogen) was used to nebulize treprostinil derivative compositions. Desired volume of the formulation (usually 3 mL) was loaded to the mesh head of the nebulizer. […]

[2] = 4.5 hr incubation time, read-out: EC50 (μM) 4.5 hr
[3] = 6.0 hr incubation time, read-out: EC50 (μM) 6.0 hr
[4] = 8.0 hr incubation time, read-out: EC50 (μM) 8.0 hr
[5] = EC50 (μM) 0.5 hr, 0.5 hr incubation time
[6] = EC50 (μM) 1.0 hr, 1.0 hr incubation time
[7] = EC50 (μM) 2.0 hr, 2.0 hr incubation time
[8] = EC50 (μM) 3.0 hr, 3.0 hr incubation time
[9] = EC50 (μM) 4.0 hr, 4.0 hr incubation time
[10] = EC50 (μM) 5.0 hr, 5.0 hr incubation time
[11] = EC50 (μM) 7.0 hr, 7.0 hr incubation time

Row | Rate of treprostinil alkyl ester conversion [1] | EC50 (EP2 prostanoid receptor; [2]) [µM] | EC50 (EP2 prostanoid receptor; [3]) [µM] | EC50 (EP2 prostanoid receptor; [4]) [µM] | EC50 (EP2 prostanoid receptor; [5]) [µM] | EC50 (EP2 prostanoid receptor; [6]) [µM] | EC50 (EP2 prostanoid receptor; [7]) [µM] | EC50 (EP2 prostanoid receptor; [8]) [µM] | EC50 (EP2 prostanoid receptor; [9]) [µM] | EC50 (EP2 prostanoid receptor; [10]) [µM] | EC50 (EP2 prostanoid receptor; [11]) [µM] | SMILES | Effect on cell proliferation, NR8383 Cells: detectable cell inhibition (NR8383 cells) | inhibition of NR8383 cell proliferation (NR8383 cells; unformulated alkyl esters, highest concentration, 72 hour)
1 | 49.8 nmOL/h * g of protein | 1.41 | 1.4 | 1.09 | 3.69 | 3.39 | 1.69 | 1.42 | 1.53 | 1.4 | 1.34 | CCCCCCCCOC(=O)COc1cccc2c1C[C@H]1C[C@@H](O)[C@H](CC[C@@H](O)CCCCC)[C@H]1C2 [Compound C8-TR, treprostinil octyl ester] | Some detectable cell | showed some inhibition of cell proliferation
2 | 2.2 nmOL/h * g of protein | 3.17 | 3.25 | 2.9 | 4.98 | 5.35 | 4.54 | 4.07 | 3.13 | 2.94 | 3.17 | CCCCCCCCCCCCOC(=O)COc1cccc2c1C[C@H]1C[C@@H](O)[C@H](CC[C@@H](O)CCCCC)[C@H]1C2 [Compound C12-TR, dodecyl-treprostinil] | No detectable cell inhibition | –
